Marks after values point to notes of the source that are not given here.
What was measured:
[1] = Dynamic surface tension of aqueous solutions, maximum bubble pressure method; type: physicochemical; settings: for γ at 0.1 wt %, 0.1 b/s / γ at 0.1 wt %, 1 b/s / γ at 0.1 wt %, 6 b/s / γ at 0.1 wt %, 20 b/s: 0.1 wt % in distilled water
Text: Dynamic surface tension data were obtained for the soluble portion of these samples using the maximum bubble pressure method at bubble rates from 0.1 bubbles/sec (b/s) to 20 b/s.
The relative efficiency of surface tension reduction can be obtained by comparing surface tension reduction of solutions containing the same amount of different surfactants. Such data are given for 0.1 wt % solutions of the foam control agents at 0.1, 1, 6 and 20 bubbles/second (b/s). The limiting surface tensions at 0.1, 1, 6 and 20 b/s represent the lowest surface tensions in water which can be achieved at the given surface creation rates for a given surfactant regardless of the amount of surfactant used and is used to evaluate the effectiveness of a surfactant. In most cases the limiting surface tension was taken at 1.0 wt % since the foam control agent was insoluble at this concentration. In the case where the foam control agent was soluble at 1.0 wt %, the limiting surface tension was taken at 5.0 wt % (where the samples were insoluble). These values give information about the relative ability to a surfactant to reduce surface defects under near-equilibrium conditions (0.1 b/s) through very dynamic conditions (20 b/s).

[2] = Foam test of DOSS solutions with added foam control agent (based on ASTM D 1173-53); type: physicochemical; settings: for Foam height after 1 min / Foam height after 10 min / Initial foam height: 0.1 wt % foam control agent added to 0.1 wt % DOSS in water; for Initial foam height: ambient temperature
Text: Dioctyl sodium sulfosuccinate (DOSS) is a commonly used surfactant in waterborne compositions. DOSS is capable of forming stable foams when dissolved in water. The foam control characteristics of various foam control agents may be assessed by measuring the foam generated by a 0.1 wt % aqueous solution of DOSS and comparing this to the foam generated after the addition of foam control agent to a 0.1 wt % DOSS solution. The DOSS utilized in these measurements was an Aerosol OT 75% surfactant obtained from Cytec Industries. The foaming and foam stability of DOSS were measured using a procedure based upon ASTM D 1173-53 at ambient temperature, typically 23° C.
In these tests, an aqueous solution of DOSS or the filtrate from the DOSS/foam control agent mixture is added from an elevated foam pipette to a foam receiver containing the same solution. The foam height is measured at the completion of the addition (“Initial Foam Height”) and the time required for the foam to dissipate at the air-liquid interface (“Time to 0 Foam”) is recorded. This test provides a comparison between the foaming characteristics of various aqueous compositions. The results for the foam control agents prepared in Examples 1-28 are reported in Table 1 along with comparative data for a 0.1 wt % solution of DOSS with no added foam control agent (Example 29).

[3] = saturated solution made using 1.0 wt % in water
[4] = saturated solution made using 5.0 wt % in water

Row | SMILES | γ at 0.1 wt %, 0.1 b/s [1] | γ at 0.1 wt %, 1 b/s [1] | γ at 0.1 wt %, 6 b/s [1] | γ at 0.1 wt %, 20 b/s [1] | γ limiting, 0.1 b/s [1, 3] | γ limiting, 1 b/s [1, 3] | γ limiting, 6 b/s [1, 3] | γ limiting, 20 b/s [1, 3] | γ limiting, 0.1 b/s [1, 4] | γ limiting, 1 b/s [1, 4] | γ limiting, 6 b/s [1, 4] | γ limiting, 20 b/s [1, 4] | Foam height after 1 min [2] | Foam height after 10 min [2] | Initial foam height [2] | Effect on foaming of DOSS solution (in words) ([2]; added to the 0.1 wt % aqueous DOSS solution)
1 | CC(C)COCC(O)CN(CCN(CC(O)COCC(C)C)CC(O)COCC(C)C)CC(O)COCC(C)C (stereo not drawn) [EDA/4 IBGE] | 37.6 dyne/cm | 41.7 dyne/cm | 51.4 dyne/cm | 65.5 dyne/cm | 34.8 dyne/cm | 36.7 dyne/cm | 40.3 dyne/cm | 49.4 dyne/cm | – | – | – | – | 1.5 cm | 1.2 cm | 2.0 cm | –
2 | CCCCOCC(O)CNCCN (racemic) [EDA/1 BGE] | 46.1 dyne/cm | 49.4 dyne/cm | 53.4 dyne/cm | 59.9 dyne/cm | 36.7 dyne/cm | 37.2 dyne/cm | 38.1 dyne/cm | 39.8 dyne/cm | – | – | – | – | 2.0 cm | 1.4 cm | 3.5 cm | increase in foaming
3 | CCCCC(CC)COCC(O)CN(CCN(CC(O)COCC(CC)CCCC)CC(O)COCC(CC)CCCC)CC(O)COCC(CC)CCCC (stereo not drawn) [EDA/4 EHGE] | 60.7 dyne/cm | 67.9 dyne/cm | 71.0 dyne/cm | 71.7 dyne/cm | 44.4 dyne/cm | 50.6 dyne/cm | 51.0 dyne/cm | 52.1 dyne/cm | – | – | – | – | 2.5 cm | 2.1 cm | 3.0 cm | –
4 | CC(C)COCC(O)CNCCN (racemic) [EDA/1 IBGE] | 47.9 dyne/cm | 51.9 dyne/cm | 53.8 dyne/cm | 59.6 dyne/cm | – | – | – | – | 29.7 dyne/cm | 30.1 dyne/cm | 30.5 dyne/cm | 31.7^b dyne/cm | 1.0 cm | 0.3 cm | 1.5 cm | –
5 | CCCCOCC(O)CNCCCOCCOCCOCCCN (stereo not drawn) [DAPDEG/1 BGE] | 50.3 dyne/cm | 54.1 dyne/cm | 56.7 dyne/cm | 61.0 dyne/cm | 36.4 dyne/cm | 40.3 dyne/cm | 42.9 dyne/cm | 45.7 dyne/cm | – | – | – | – | 0.8 cm | 0.2 cm | 1.7 cm | –
6 | CC(C)COCC(O)CNCCN(CC(O)COCC(C)C)CC(O)COCC(C)C (stereo not drawn) [EDA/3 IBGE] | 38.9 dyne/cm | 42.5 dyne/cm | 44.1 dyne/cm | 50.3 dyne/cm | 33.3 dyne/cm | 34.3 dyne/cm | 35.0 dyne/cm | 35.6 dyne/cm | – | – | – | – | 0.8 cm | 0.7 cm | 0.9 cm | –
7 | CCCCC(CC)COCC(O)CNCCN (mixture of isomers) [EDA/1 EHGE] | 28.6 dyne/cm | 37.3 dyne/cm | 54.7 dyne/cm | 63.3 dyne/cm | 27.4 dyne/cm | 28.3 dyne/cm | 30.6 dyne/cm | 32.5 dyne/cm | – | – | – | – | 0.2 cm | 0 cm | 1.5 cm | –

Now from value to compound, other results behind:

Row | γ at 0.1 wt %, 0.1 b/s [1] | γ at 0.1 wt %, 1 b/s [1] | γ at 0.1 wt %, 6 b/s [1] | γ at 0.1 wt %, 20 b/s [1] | γ limiting, 0.1 b/s [1, 3] | γ limiting, 1 b/s [1, 3] | γ limiting, 6 b/s [1, 3] | γ limiting, 20 b/s [1, 3] | γ limiting, 0.1 b/s [1, 4] | γ limiting, 1 b/s [1, 4] | γ limiting, 6 b/s [1, 4] | γ limiting, 20 b/s [1, 4] | SMILES | Foam height after 1 min [2] | Foam height after 10 min [2] | Initial foam height [2] | Effect on foaming of DOSS solution (in words) ([2]; added to the 0.1 wt % aqueous DOSS solution)
8 | 42.8 dyne/cm | 55.7 dyne/cm | 67.5 dyne/cm | 67.7 dyne/cm | 35.3 dyne/cm | 36.4 dyne/cm | 38.9 dyne/cm | 41.5 dyne/cm | – | – | – | – | CCCCOCC(O)CN(CCCC(C)CN(CC(O)COCCCC)CC(O)COCCCC)CC(O)COCCCC (stereo not drawn) [MPD/4 BGE] | 1.5 cm | 0.5 cm | 2.5 cm | –
9 | 36.7 dyne/cm | 38.9 dyne/cm | 44.4 dyne/cm | 58.4 dyne/cm | 35.9 dyne/cm | 37.0 dyne/cm | 39.2 dyne/cm | 43.0 dyne/cm | – | – | – | – | CCCCOCC(O)CN(CCN(CC(O)COCCCC)CC(O)COCCCC)CC(O)COCCCC (stereo not drawn) [EDA/4 BGE] | 1.3 cm | 1.2 cm | 1.9 cm | –
10 | 42.9 dyne/cm | 55.9 dyne/cm | 67.6 dyne/cm | 70.8 dyne/cm | 37.3 dyne/cm | 39.0 dyne/cm | 40.8 dyne/cm | 41.9 dyne/cm | – | – | – | – | CCCCOCC(O)CN(CCCCCCN(CC(O)COCCCC)CC(O)COCCCC)CC(O)COCCCC (stereo not drawn) [HDA/4 BGE] | 1.3 cm | 1.2 cm | 1.5 cm | –
11 | 70.6 dyne/cm | 71.8 dyne/cm | 72.0 dyne/cm | 72.4 dyne/cm | 58.5 dyne/cm | 68.5 dyne/cm | 70.5 dyne/cm | 71.0 dyne/cm | – | – | – | – | CCCCOCC(O)CN(CC(O)COCCCC)C1CCC(CC2CCC(N(CC(O)COCCCC)CC(O)COCCCC)CC2)CC1 (stereo not drawn) [PACM/4 BGE] | 2.1 cm | 1.8 cm | 2.7 cm | –
12 | 50.2 dyne/cm | 59.2 dyne/cm | 69.1 dyne/cm | 71.8 dyne/cm | 47.9 dyne/cm | 54.0 dyne/cm | 63.5 dyne/cm | 65.8 dyne/cm | – | – | – | – | CCCCOCC(O)CNC1CCC(CC2CCC(N(CC(O)COCCCC)CC(O)COCCCC)CC2)CC1 (stereo not drawn) [PACM/3 BGE] | 2.8 cm | 1.5 cm | 2.5 cm | –
13 | 45.3 dyne/cm | 58.7 dyne/cm | 70.5 dyne/cm | 70.9 dyne/cm | 33.5 dyne/cm | 36.0 dyne/cm | 47.1 dyne/cm | 48.7 dyne/cm | – | – | – | – | CCCCC(CC)COCC(O)CNCCN(CC(O)COCC(CC)CCCC)CC(O)COCC(CC)CCCC (stereo not drawn) [EDA/3 EHGE] | 1.5 cm | 1.2 cm | 2.1 cm | –

— patent US6746623B2, “Alkyl glycidyl ether-capped diamine foam controlling agent” (Air Products and Chemicals, Inc., priority 2002, dated 2004)
